According to patent US20040254197A1, “Injections for eye tissues containing drug bonded to polyethlene glycol” (SANTEN PHARMACEUTICAL CO., LTD., priority 2001, published 2004):

What was measured:
[1] = Intraocular pharmacokinetic tests by fluorophotometry in rabbits after injection into the vitreous body; assay type: in vivo, white rabbits; conditions: rabbit, intravitreous injection
Procedure: Intraocular pharmacokinetic tests by fluorophotometry in rabbits It is difficult in terms of measurement techniques to actually trace transfer of slight amounts of tissues using the drug-PEG conjugate prepared above. Accordingly, fluorescein, which has fluorescence and can be measured with high sensitivity, was used as a model drug, a fluorescein-PEG conjugate (hereinafter referred to as “FL-PEG”) was synthesized, and intraocular pharmacokinetics tests were performed. Fluorescein sodium (hereinafter referred to as “FL”) was used as a comparative substance.
A 2.6% sterilized glycerin solution (10 ml) was added to FL-PEG (18 mg), and this liquid was stirred to dissolve FL-PEG to prepare an injection. A 10 μg/ml injection containing FL was prepared in the similar manner.
1) A mixed solution containing an aqueous ketamine hydrochloride solution (50 mg/ml) and an aqueous xylazine hydrochloride (50 mg/ml) in a ratio of 7:3 was administered intramuscularly to white rabbits to anesthetize.
2) A tropicamide (0.5%)/phenylephrine hydrochloride (0.5%) ophthalmic solution was instilled into eyes to cause mydriasis in the eyes.
3) The eyes were anesthetized with an oxybuprocaine hydrochloride (0.5%) ophthalmic solution.
4) The above-mentioned FL-PEG or FL liquid preparation was injected into the center of a vitreous body of one eye from an ocular pars plana in an amount of […] respectively with a syringe equipped with a 30 G needle.
5) Intraocular fluorescence intensity was measured with a fluorophotometry apparatus with the laps of time immediately after the administration to the vitreous body and at 1, 2, 4, 7, 15, 18, 23, 28, 35, 42, 49 and 56 days. A calibration curves were prepared, changes in concentration in the vitreous body and a retina were determined. Next, respective half-lives were calculated from the changes in concentration by a moment method. The above-mentioned operation 2) was carried out before the intraocular fluorescence intensity was measured.
The numerical values in the table are the average of three samples respectively. The half-life of FL-PEG in the vitreous body was calculated using measured values on forth to 28th day. […] The half-life of FL in the vitreous body was calculated using measured values immediately after the administration and on first day after the administration.

[2] = system: krypton laser-induced choroidal neovascularization; test: Effects of subconjunctivally administered betamethasone-PEG conjugate on krypton laser-induced choroidal neovascularization in rats; assay type: in vivo; conditions: single subconjunctival injection 50 μl (BM-PEG 40 mg/ml, BP 2.8 mg/ml), 14th day after photocoagulation, vehicle 71.9%
Procedure: 1) A one ml/kg mixed solution containing an aqueous ketamine hydrochloride solution (50 mg/ml) and an aqueous xylazine hydrochloride solution (50 mg/ml) in a ratio of 7:1 was administered intramuscularly to rats to anesthetize them systemically.
2) A 0.5% tropicamide-0.5% phenylephrine hydrochloride solution was instilled into the eyes to cause mydriasis, and then photocoagulation was performed with a krypton laser photocoagulation apparatus (red) under coagulation conditions of spot size of 100 μm, output of 100 mW and coagulation time of 0.1 sec.
3) Cover glass for observing tissues was used as a contact lens, the photocoagulation was carried out in a posterior pole portion of ocular fundus at eight spots per eye sparsely avoiding thick retinal vessels. The photocoagulation was carried out focusing on the retinal posterior portion in order to cut a Bruch's membrane. After the photocoagulation, the ocular fundus was photographed. […]
6) In the fluorescein fundus angiography, a photocoagulation site where fluorescence diapedesis was not observed was judged as negative, and a photocoagulation site where apparent fluorescence diapedesis was observed was judged as positive. When there are two photocoagulation sites where a little fluorescence diapedesis was observed, they were judged as positive. Each neovascularization exhibition rate was calculated according to the following equation. […]

Row | SMILES | Half-life in vitreous body ([1]; fluorophotometry, moment method, average of three samples) | Detection in the retina (changes in concentration, FIG. 2) ([1]; followed for 56 days) | Detection in the vitreous body (changes in concentration, FIG. 1) ([1]; followed for 56 days) | half-life ([1]; white, vitreous body, other: injection into the vitreous body (intravitreal), 1 µg/eye, fluorophotometry, moment method, average of three samples) | Neovascularization exhibition rate (%) [2]
1 | O=C1OC2(c3ccc(O)cc3Oc3cc(O)ccc32)c2ccccc21 [FL, Fluorescein sodium] | less than four | detected only on first day after the administration | not detected on second day after the administration or later | < 4 h | 
2 | C[C@H]1C[C@H]2[C@@H]3CCC4=CC(=O)C=C[C@]4(C)[C@@]3(F)[C@@H](O)C[C@]2(C)[C@@]1(O)C(=O)COP(=O)(O)O [BP, Betamethasone phosphate] |  |  |  |  | 50.0%
